For experiment [1], the system named is human UCB-MSCs. Nature of the experiment: Tuj1 immunochemical assay with CtBP inhibitors. It is filed as cell-based. Particulars: 30 μM, 5 days. How it is done:
To determine CtBP1-mediated ciNSC5 differentiation by YJ102 in human UCB-MSCs, a CTBP1 mechanism by treatment with NSC95397 or 4-methylthio-2-oxobutanoate (MTOB) was analyzed by immunochemical assay. Specifically, UCB-MSCs were dispensed at 2.1×10^4 cells/well in a 12-well plate containing an 18 mm cover glass (circular) (a DMSO control group was dispensed at 3.5×10^3 cells/well). […] The culture medium was removed, washed with PBS, and fixed with 4% paraformaldehyde at room temperature for 10 minutes. After washed three times with PBS, the cells were permeabilized with PBS-T containing 0.5% Triton X-100 for 10 minutes, washed with PBS-T three times for 10 minutes each, and then blocked with a blocking solution (PBS-T containing 5% BSA and 5% goat serum) for 1 hour. Thereafter, the cells were treated with anti-Tuj1 antibody (Cat. 801201, BioLegend) diluted 1/5000 in a blocking solution and incubated at 4° C. overnight. The next day, the cells were washed 10 times for 10 minutes each with PBS-T, and then treated with anti-mouse IgG-cy3 (Cat. 111-165-003, Jackson ImmunoResearch) diluted 1/2000 in a blocking solution, and incubated for 1 hour in dark conditions. Next, the cells were washed 10 times for 10 minutes each with PBS-T, mounted with a mounting solution containing DAPI, and then observed with a confocal microscope.

The next experiment has as its system BM-MSC. Nature of the experiment: Tuj1 immunochemical assay, BM-MSC. The format is cell-based, human. Particulars: 10, 20 or 30 μM, 5 days. How it is done: (§1) To determine whether transdifferentiation into ciNSC5, neural progenitor cells, occurred similarly even in MSCs of different origins when human UCB-MSCs were treated with YJ101, YJ102, or YJ103 for 5 days, the expression of neuronal markers in differentiated ciNSC5 was confirmed by immunochemical assay using MSCs from human adipose-derived mesenchymal stem cells (AD-MSCs), human bone marrow-derived mesenchymal stem cells ([…]) and human umbilical cord blood-derived mesenchymal stem cells (UCB-MSCs; Promo Cells). Specifically, AD-MSC (StemPro™ Human Adipose-Derived Stem Cell, Gibco, Passage #6) was incubated in a MesenPRO RS™ medium, BM-MSC (ATCC, Passage #6) was incubated in a Mesenchymal Stem Cell Basal Medium for Adipose, Umbilical and Bone Marrow-derived MSC (Cat. PCS-500-030, ATCC) medium, and UCB-MSC (Promo Cell, Passage #6) was incubated in a CellCor™ CD MSC (Cat. YSP001, Xell Therapeutics) medium, and then dispensed at 2.1×10^4 cells/well in a 12-well plate with an 18 mm cover glass (circular) (DMSO control group was dispensed at 3.5×10^3 cells/well). […] The culture medium was removed, washed with PBS, and then fixed with 4% paraformaldehyde at room temperature for 10 minutes. After washed three times with PBS, the cells were permeabilized with PBS-T containing 0.5% Triton X-100 for 10 minutes, washed with PBS-T three times for 10 minutes each, and then blocked with a blocking solution (PBS-T containing 5% BSA and 5% goat serum) for 1 hour. Thereafter, the cells were treated with anti-Tuj1 antibody (Cat. 801201, BioLegend) diluted 1/5000 in a blocking solution and incubated at 4° C. overnight. The next day, the cells were washed 10 times for 10 minutes each with PBS-T, and then treated with anti-mouse IgG-cy3 diluted 1/2000 in a blocking solution, and incubated for 1 hour in dark conditions. Next, the cells were washed 10 times for 10 minutes each with PBS-T, mounted with a mounting solution containing DAPI, and then observed with a confocal microscope.

A further experiment concerns UCB-MSC (Promo Cell). Nature of the experiment: Tuj1 immunochemical assay, UCB-MSC (Promo Cell). The format is cell-based, human. Particulars: 10, 20 or 30 μM, 5 days. How it is done:
as §1

A further experiment has as its system UCB-MSCs. Nature of the experiment: CellTiter-Glo proliferation assay. It is filed as cell-based, human. Particulars: 10, 20, or 40 μM; 3 or 5 days. The method, then:
Thereafter, 100 μl of a CellTiter-Glo reagent prepared by mixing a CellTiter-Glo Buffer with a CellTiter-Glo substrate was added to each well of a 96-well plate, covered with a plate cover, and incubated at room temperature for 30 minutes.
(In general: In ATP-based viability assays light output follows the ATP content of the culture.)

The test system of experiment [2] is human UCB-MSCs. Nature of the experiment: RNA-seq gene expression. The format is cell-based. Particulars: UCB-MSCs treated with YJ102 30 μM for 3 days. The method, then: The expression gene profile of ciNSC5, which was transdifferentiated from human UCB-MSCs by treating YJ102 for 5 days, was analyzed using genome-wide RNA-seq. Specifically, 1×10^5 human UCB-MSCs were dispensed in a 60 mm culture dish (a control group dispensed at 1.67×10^4), the cells were treated with YJ102 dissolved at 30 mM in DMSO at a concentration of 30 μM (the control group treated with DMSO), and incubated at 37° C. for 2, 3, or 5 days. Thereafter, the culture medium was removed, washed with PBS, and the cells were collected with a scraper and transferred to a microcentrifuge tube. PBS was removed by centrifugation, and the cells were added with 500 μl of a Tri-RNA Reagent and mixed well by pipetting. The mixture was added with 100 μl of chloroform, the tube was mixed by vortexing for 15 seconds, and then centrifuged at 4° C. at 14,000 rpm for 20 minutes. Thereafter, the upper aqueous phase was transferred to a new microcentrifuge tube using a pipette, and added and mixed with 550 μl of isopropanol. The mixture was centrifuged at 14,000 rpm at 4° C. for 20 minutes, the supernatant was discarded, and the pellet was washed with 1 ml of 70% ethanol. […] The pellet was resuspended in 100 μl RNase-free DIW, centrifuged at 14,000 rpm for 10 minutes at 4° C. to remove the supernatant, air-dried, and then the RNA concentration was quantified using nanodrop. […]

For the compound `CCc1ccc(N(C(=O)COC)c2nc3cc(Cl)ccc3o2)cc1` [YJ102], in the experiment with human UCB-MSCs [1], the “differentiation of UCB-MSCs into ciNSC5 through CtBP1 regulation” value was “differentiated UCB-MSCs into ciNSC5”. Further, the “expression of Tuj1” value in the experiment with BM-MSC and with UCB-MSC (Promo Cell) was “increased” throughout. The “cell proliferation (CellTiter-Glo)” value with UCB-MSCs was “reduced cell proliferation in a concentration-dependent manner”. Further, the “expression of cell division-related genes (RNA-seq)” value with human UCB-MSCs [2] is “decreased”. Moreover, the “expression of nervous system-related genes (RNA-seq)” value in the experiment on human UCB-MSCs [2] is “increased”.

Values taken from patent US20250027041A1, “COMPOSITION FOR INDUCING TRANSDIFFERENTIATION AND STEM CELLS TREATED THEREWITH” (YJ CERAPEUTICS INC., priority 2021, published 2025).
